One assay deals with S. aureus FDA-209-p. Kind of assay: Antimicrobial activity test: MIC by the agar plate dilution method, S. aureus FDA-209-p. Type of assay: cell-based, Staphylococcus aureus. The note with it: inoculum 1×10^6 cells/ml. The procedure:
(§1) In order to investigate the in vitro activity of the under-mentioned compounds against various bacteria, the minimal inhibitory concentration (MIC) values were determined by the agar plate dilution method [see Chemotherapy, 22, 1126-1128 (1974)].
(§2) Each test inoculum was adjusted to 1×10^6 cells/ml (O.D., 600 mμ: 0.07-0.16).

For the next assay, the system named is E. coli No. 29. As to the kind of experiment: Antimicrobial activity test: MIC by the agar plate dilution method, E. coli No. 29. Type of assay: cell-based. On the procedure:
as §1, §2

The test system of another assay is K. pneumoniae NCTC-9632. Kind of assay: Antimicrobial activity test: MIC by the agar plate dilution method, K. pneumoniae NCTC-9632. Type of assay: cell-based. The note with it: inoculum 1×10^6 cells/ml. On the procedure:
as §1, §2

For another assay, the system named is P. mirabilis 1287. As to the kind of experiment: Antimicrobial activity test: MIC by the agar plate dilution method, P. mirabilis 1287. The class given is cell-based. As to conditions: P. mirabilis 1287; inoculum 1×10^6 cells/ml. The procedure:
as §1, §2

The subject of a further assay is M. morganii ATCC-25830. Kind of assay: Antimicrobial activity test: MIC by the agar plate dilution method, M. morganii ATCC-25830. The class given is cell-based. As to conditions: inoculum 1×10^6 cells/ml. On the procedure: as §1, §2
The subject of a further assay is S. marcescens IFO-12648. Kind of assay: Antimicrobial activity test: MIC by the agar plate dilution method, S. marcescens IFO-12648. The class given is cell-based. The procedure:
as §1, §2

In another assay the test system is P. aeruginosa NCTC-10490. Kind of assay: Antimicrobial activity test: MIC by the agar plate dilution method, P. aeruginosa NCTC-10490. The class given is cell-based. As to conditions: inoculum 1×10^6 cells/ml. On the procedure:
as §1, §2

Setting [1] is: E. coli No. 29, inoculum 1×10^6 cells/ml.
The mark [2] stands for this setting: S. marcescens IFO-12648, inoculum 1×10^6 cells/ml.

Like-named read-outs stand apart in the source and are kept apart here.

Regarding “Benzhydryl 7-[2-(2-formamidothiazol-4-yl)-2-(2-chloroethoxy)iminoacetamido-]-3-[(1,3,4-thiadiazol-2-yl)thiomethyl]-Δ^3 -O-2-isocephem-4-carboxylate (syn-isomer) [Example 32]”, the minimal inhibitory concentration (MIC) (in general, the lowest concentration that inhibits growth of the organism) in the assay with S. aureus FDA-209-p turned out to be 0.39 µg/mL; in the assay with E. coli No. 29 (setting [1]) it was 0.05 µg/mL; against K. pneumoniae NCTC-9632, 0.1 µg/mL; against P. mirabilis 1287 it was 0.05 µg/mL; against M. morganii ATCC-25830, 0.1 µg/mL; against S. marcescens IFO-12648, 0.78 µg/mL.
Consider “Benzyl 7-[2-(2-chloroacetamidothiazol-4-yl)-2-methoxyiminoacetamido]-3-[(1,3,4-thiadiazol-2-yl)thiomethyl]-Δ^3 -O-2-isocephem-4-carboxylate (syn-isomer) [Example 10]”, for which the minimal inhibitory concentration (MIC) in the assay with S. aureus FDA-209-p was 0.39 µg/mL; against E. coli No. 29 it was 0.39 µg/mL; in the assay on K. pneumoniae NCTC-9632, 0.39 µg/mL; in the assay on P. mirabilis 1287, 0.1 µg/mL; against M. morganii ATCC-25830, 0.2 µg/mL; against S. marcescens IFO-12648, 0.39 µg/mL.
Take “7-[2-(2-Aminothiazol-4-yl)-2-[(pyrazol-3-yl)methoxyiminoacetamido]-3-[(1,3,4-thiadiazol-2-yl)thiomethyl]-Δ^3 -O-2-isocephem-4-carboxylic acid dihydrochloride (syn-isomer) [Example 24]”: the MIC in the assay with E. coli No. 29 is 0.39 µg/mL; in the assay with K. pneumoniae NCTC-9632 it was 0.39 µg/mL; in the assay with P. mirabilis 1287 it was ≤ 0.025 µg/mL; in the assay on M. morganii ATCC-25830 it was 0.1 µg/mL; in the assay with S. marcescens IFO-12648, 0.39 µg/mL; against P. aeruginosa NCTC-10490 it was 12.5 µg/mL.
Regarding “Benzhydryl (6S,7S)-7-[2-(2-tritylaminothiazol-4-yl)-2-methoxyiminoacetamido]-3-[(1,3,4-thiadiazol-2-yl)thiomethyl]-Δ^3 -O-2-isocephem-4-carboxylate (syn-isomer) [Example 58]”, the MIC in the assay with S. aureus FDA-209-p was 0.39 µg/mL; against E. coli No. 29 (setting [1]), ≤ 0.025 µg/mL; in the assay on K. pneumoniae NCTC-9632, ≤ 0.025 µg/mL; in the assay on P. mirabilis 1287, ≤ 0.025 µg/mL; with S. marcescens IFO-12648, 0.39 µg/mL; in the assay with P. aeruginosa NCTC-10490 it was 25 µg/mL.
Take “(6S,7S)-7-[2-(2-Aminothiazol-4-yl)-2-cyclopropylmethyloxyiminoacetamido]-3- [(1,2,3-thiadiazol-5-yl)thiomethyl]-Δ^3 -O-2-isocephem-4-carboxylic acid (syn-isomer) [Example 65]”: the MIC in the assay with E. coli No. 29 (setting [1]) came to 0.1 µg/mL; with K. pneumoniae NCTC-9632 it was 0.39 µg/mL; in the assay on P. mirabilis 1287 it was 0.2 µg/mL; against M. morganii ATCC-25830, 0.05 µg/mL; against S. marcescens IFO-12648, 0.78 µg/mL; against P. aeruginosa NCTC-10490 it was 0.78 µg/mL.
Take “Benzhydryl 7-[2-(2-tritylaminothiazol-4-yl)-2-cyanomethyloxyiminoacetamido]-3-[(1,2,3-thiadiazol-5-yl)thiomethyl]-Δ^3 -O-2-isocephem-4-carboxylate (syn-isomer) [Example 52]”: the MIC with E. coli No. 29 (setting [1]) was found to be 0.1 µg/mL; against K. pneumoniae NCTC-9632, 0.2 µg/mL; with P. mirabilis 1287, 0.1 µg/mL; with M. morganii ATCC-25830, 0.05 µg/mL; against S. marcescens IFO-12648, 0.78 µg/mL; against P. aeruginosa NCTC-10490, 0.39 µg/mL.
“Benzyl 7-[2-(2-chloroacetamidothiazol-4-yl)-2allyloxyiminoacetamido]-3-[(1,3,4-thiadiazol-2-yl)thiomethyl]-Δ^3 -O-2-isocephem-4-carboxylate (syn-isomer) [Example 14]”: the minimum inhibitory concentration (MIC) against E. coli No. 29 (setting [1]) is 0.05 µg/mL; against K. pneumoniae NCTC-9632, 0.1 µg/mL; against P. mirabilis 1287, ≤ 0.025 µg/mL; in the assay on S. marcescens IFO-12648 (setting [2]), 0.1 µg/mL; against P. aeruginosa NCTC-10490, 3.13 µg/mL.
With “Benzhydryl 7-[2-(2-tritylaminothiazol-4-yl)-2-allyloxyiminoacetamido]-3-[(1,3,4-thiadiazol-2-yl)thiomethyl]-Δ^3 -O-2-isocephem-4-carboxylate (syn-isomer) [Example 43]”, the MIC worked out at 0.39 µg/mL against E. coli No. 29; 0.78 µg/mL in the assay on K. pneumoniae NCTC-9632; 0.1 µg/mL in the assay with P. mirabilis 1287; 1.56 µg/mL with M. morganii ATCC-25830; 6.25 µg/mL against S. marcescens IFO-12648 (setting [2]); 50 µg/mL in the assay on P. aeruginosa NCTC-10490.
As for “Benzhydryl 7-[2-(2-tritylaminothiazol-4-yl)-2-cyclopropylmethyloxyiminoacetamido]-3-[(1,2,3-thiadiazol-5-yl)thiomethyl]-Δ^3 -O-2-isocephem-4-carboxylate (syn-isomer) [Example 53]”, the minimal inhibitory concentration (MIC) against E. coli No. 29 (setting [1]) was found to be 0.05 µg/mL; with P. mirabilis 1287, 0.1 µg/mL; with M. morganii ATCC-25830 it was 0.05 µg/mL; in the assay on S. marcescens IFO-12648 it was 0.78 µg/mL; in the assay on P. aeruginosa NCTC-10490 it was 0.39 µg/mL.
As for “Benzyl 7-[2-(2-chloroacetamidothiazol-4-yl)-2-methoxyiminoacetamido]-3-[(carbamoyloxy)methyl]-Δ^3 -O-2-isocephem-4-carboxylate (syn-isomer) [Example 1]”, the minimum inhibitory concentration (MIC) in the assay on E. coli No. 29 (setting [1]) was ≤ 0.025 µg/mL; against P. mirabilis 1287, ≤ 0.025 µg/mL; against S. marcescens IFO-12648 (setting [2]), 0.1 µg/mL; in the assay on P. aeruginosa NCTC-10490 it was 3.13 µg/mL.
Turning to “Benzhydryl (6S,7S)-7-[2-(2-aminothiazol-4-yl)-2-cyclopropylmethyloxyiminoacetamido]-3-[(1,2,3-thiadiazol-5-yl)thiomethyl]-Δ^3 -O-2-isocephem-4-carboxylate (syn-isomer) [Example 64]”, the minimum inhibitory concentration (MIC) against E. coli No. 29 (setting [1]) is ≤ 0.025 µg/mL; against K. pneumoniae NCTC-9632, ≤ 0.025 µg/mL; against P. mirabilis 1287, ≤ 0.025 µg/mL; with M. morganii ATCC-25830, ≤ 0.025 µg/mL; against S. marcescens IFO-12648 (setting [2]), 0.05 µg/mL; in the assay on P. aeruginosa NCTC-10490 it was 1.56 µg/mL.
On to “7-[2-(2-Aminothiazol-4-yl)-2-(2-fluoroethoxy)iminoacetamido]-3-[(1,3,4-thiadiazol-2-yl)thiomethyl-]-Δ^3 -O-2-isocephem-4-carboxylic acid trifluoroacetate (syn-isomer) [Example 49]”, for which the MIC with E. coli No. 29 (setting [1]) was ≤ 0.025 µg/mL; with K. pneumoniae NCTC-9632, ≤ 0.025 µg/mL; against P. mirabilis 1287 it was ≤ 0.025 µg/mL; against M. morganii ATCC-25830 it was ≤ 0.025 µg/mL; with S. marcescens IFO-12648 (setting [2]), 0.1 µg/mL; against P. aeruginosa NCTC-10490, 1.56 µg/mL.
For the substance “Benzhydryl 7-[2-(2-tritylaminothiazol-4-yl)-2 -methoxyiminoacetamido]-3-[(1,2,3-thiadiazol-5-yl)thiomethyl]-Δ^3 -O-2-isocephem-4-carboxylate (syn-isomer) [Example 51]”, the MIC with E. coli No. 29 (setting [1]) is ≤ 0.025 µg/mL; in the assay on K. pneumoniae NCTC-9632 it was ≤ 0.025 µg/mL; in the assay with P. mirabilis 1287 it was ≤ 0.025 µg/mL; against M. morganii ATCC-25830, ≤ 0.025 µg/mL; with S. marcescens IFO-12648 (setting [2]), 0.1 µg/mL; against P. aeruginosa NCTC-10490, 0.78 µg/mL.
Take “7-[2-(2-Chloroacetamidothiazol-4-yl)-2-methoxyiminoacetamido]-3-[(1,3,4-thiadiazol-2-yl)thiomethyl]-Δ^3 -O-2-isocephem-4-carboxylic acid (syn-isomer) [Example 11]”: the minimum inhibitory concentration (MIC) was 0.05 µg/mL in the assay on E. coli No. 29 (setting [1]); 0.2 µg/mL against K. pneumoniae NCTC-9632; ≤ 0.025 µg/mL against P. mirabilis 1287; ≤ 0.025 µg/mL in the assay with M. morganii ATCC-25830; 0.2 µg/mL against S. marcescens IFO-12648 (setting [2]); 6.25 µg/mL with P. aeruginosa NCTC-10490.
As for “Benzhydryl 7-[2-(2-tritylaminothiazol-4-yl)-2-[(3-butenyl)oxyimino]acetamido]-3-[(1,3,4-thiadiazol-2-yl)thiomethyl]-Δ^3 -O-2-isocephem-4-carboxylate (syn-isomer) [Example 39]”, the MIC is 0.2 µg/mL against E. coli No. 29 (setting [1]); 0.2 µg/mL against K. pneumoniae NCTC-9632; 0.2 µg/mL against P. mirabilis 1287; 0.39 µg/mL in the assay on M. morganii ATCC-25830; 0.78 µg/mL in the assay on S. marcescens IFO-12648; 1.56 µg/mL with P. aeruginosa NCTC-10490.
Turning to “Benzhydryl (6S,7S)-7-[2-(2-tritylaminothiazol-4-yl)- 2-cyanomethoxyiminoacetamido]-3-[(1,3,4-thiadiazol-2-yl)thiomethyl]-Δ^3 -O-2-isocephem-4-carboxylate (syn-isomer) [Example 61]”, the minimum inhibitory concentration (MIC) against E. coli No. 29 (setting [1]) was 0.05 µg/mL; in the assay with K. pneumoniae NCTC-9632 it was 0.05 µg/mL; with P. mirabilis 1287, ≤ 0.025 µg/mL; in the assay on M. morganii ATCC-25830 it was ≤ 0.025 µg/mL; with S. marcescens IFO-12648, 0.78 µg/mL; against P. aeruginosa NCTC-10490, 3.13 µg/mL.
As for “Benzhydryl 7-[2-(2-tritylaminothiazol-4-yl)-2-benzyloxyiminoacetamido]-3-[(1,3,4-thiadiazol-2-yl)thiomethyl]-Δ^3 -O-2-isocephem-4-carboxylate (syn-isomer) [Example 47]”, the MIC was ≤ 0.025 µg/mL in the assay with E. coli No. 29 (setting [1]); ≤ 0.025 µg/mL in the assay with K. pneumoniae NCTC-9632; ≤ 0.025 µg/mL in the assay on P. mirabilis 1287; ≤ 0.025 µg/mL against M. morganii ATCC-25830; 0.1 µg/mL with S. marcescens IFO-12648 (setting [2]); 3.13 µg/mL in the assay with P. aeruginosa NCTC-10490.
Turning to “Benzhydryl (6S,7S)-7-[2-(2-tritylaminothiazol-4-yl)-2-cyclopropylmethyloxyiminoacetamido]-3-[(1,2,3-thiadiazol-5-yl)thiomethyl]-Δ^3 -O-2-isocephem-4-carboxylate (syn-isomer) [Example 63]”, the MIC with E. coli No. 29 (setting [1]) is ≤ 0.025 µg/mL; in the assay with K. pneumoniae NCTC-9632, ≤ 0.025 µg/mL; in the assay with P. mirabilis 1287 it was ≤ 0.025 µg/mL; with S. marcescens IFO-12648 (setting [2]), 0.05 µg/mL; against P. aeruginosa NCTC-10490, 0.78 µg/mL.

These data come from patent US4831026A, “2-oxa-isocephem compounds, compositions containing same and processes of using” (Otsuka Pharmaceutical Co., Ltd., priority 1985, dated 1989).
